From publication PMC5775280, “Functional Characterization and Signaling Systems of Corazonin and Red Pigment Concentrating Hormone in the Green Shore Crab, Carcinus maenas” (Frontiers in Neuroscience, 2018)
pEC50: −log10 of the molar value. Peptide text beside a SMILES is read from it.

Experiments:
[1] = system: red and black epidermal chromatophores, dactyl of the 5th walking leg; experiment: Chromatophore pigment migration bioassay in vivo; parameters: species or system Carcinus maenas; details: for pigment migration (concentration) in red and black epidermal chromatophores: injection after 40 min dispersion with 5 pmol PDH, 0.1–100 pmol/crab for RPCH or AKH, 100 pmol/crab for CRZ or ACP, scored 5 and 20 min after injection
Method: Pigmentary effector activity of […], Locusta migratoria AKH-I, and ACP were measured in vivo, using small (15-20 mm carapace width) C. maenas. Crabs were firstly adapted to a white background, light intensity 300 lx for 1 h. Pigment dispersion of red and black chromatophores in the […] of the 5th walking leg were microscopically observed and indices of dispersion scored according to Hogben and Slome ([1931]). Red and black chromatophores were firstly fully dispersed by injection of 5 pmol C. maenas pigment dispersing hormone ([…]) in 10 μl saline into the hypobranchial sinus, using hand-drawn glass microcapillaries. Chromatophore dispersion indices were scored at 0, 20, 40 min. Peptides were then injected and chromatophores subsequently scored after 5 and 20 min.

[2] = molecular target: T1, C. maenas RPCHR (red pigment concentrating hormone receptor) (Carcinus maenas, UniProt A0A2L0WQF2); experiment: Aequorin luminescence Ca2+ mobilization in CHO-K1-Aeq cells transiently expressing RPCHR; assay type: cell-based; details: for pEC50: CHO-K1-Aeq cells (without Gα16) transiently expressing RPCHR, luminescence response normalized to total Ca2+ response, dose response curves, means of n = 4; for binding to / activation of RPCHR: micromolar concentrations
T1 sequence (A0A2L0WQF2 1-529): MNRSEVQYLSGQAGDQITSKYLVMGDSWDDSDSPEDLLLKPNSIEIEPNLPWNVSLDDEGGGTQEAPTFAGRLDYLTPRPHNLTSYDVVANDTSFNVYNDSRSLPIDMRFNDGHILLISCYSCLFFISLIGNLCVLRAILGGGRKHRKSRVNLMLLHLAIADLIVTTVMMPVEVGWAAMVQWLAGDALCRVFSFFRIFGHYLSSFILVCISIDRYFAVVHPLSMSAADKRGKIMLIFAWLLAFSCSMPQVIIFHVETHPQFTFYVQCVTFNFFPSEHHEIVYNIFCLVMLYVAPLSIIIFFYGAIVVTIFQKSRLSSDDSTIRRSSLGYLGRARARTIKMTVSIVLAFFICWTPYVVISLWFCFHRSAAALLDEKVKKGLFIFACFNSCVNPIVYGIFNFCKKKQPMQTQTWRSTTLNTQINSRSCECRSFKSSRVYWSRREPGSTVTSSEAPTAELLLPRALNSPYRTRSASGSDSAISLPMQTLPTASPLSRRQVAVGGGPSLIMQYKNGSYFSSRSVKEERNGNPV
Method: (§1) Chinese hamster ovary (CHO-K1) cells containing stably expressed apoaequorin (Perkin Elmer, Boston, MA) and either Gα16 or Gq subunit (control cells) were cultured in Dulbecco's Modified Eagle Medium (DMEM) F-12 Nutrient Mixture GlutaMax (Gibco®) supplemented with 10% fetal bovine serum (Gibco®). Cells were maintained in vented T75 flasks at 37°C in 5% CO2.
(§2) Cells grown in a monolayer to approximately 60% confluency in T75 flasks were transfected with pcDNA3.1 constructs using FugeneHD (Promega) according to the manufacturer's recommendations. Briefly, transfection medium was prepared by combining 800 μl Opti-MEM® (Gibco) with 10 μg vector and 30 μl Fugene HD in a 2 ml polystyrene tube and incubated for 10 min at room temperature. The transfection reagent was added to 5 ml of fresh culture media and the cells incubated overnight at 37°C in 5% CO2. After 24 h, an additional 10 ml of culture media were added to the flasks and the cells returned to 37°C at 5% CO2 for a further overnight incubation.
(§3) On the day of the assay, cells were detached from the culture flask by incubating for 12 min in 5 ml 0.2% EDTA in PBS. The cells were washed with 10 ml DMEM clear DMEM/F-12 containing L-glutamine, 15 mM HEPES and moved to 50 ml centrifuge tubes. Cells were centrifuged for 5 min at 260 g and resuspended to a concentration of 5 × 10^6 cells ml^−1 in 0.2 μm filtered BSA medium (DMEM/F-12 containing L-glutamine, 15 mM HEPES + 0.1% BSA). Coelenterazine h (Invitrogen, Paisley, UK) was added to a concentration of 5 μM and the cells incubated for 4 h in the dark at room temperature whilst gently rocking. The cells were diluted 10-fold and incubated for a further 60 min before use in the assay. Synthetic peptides (GeneCust, Dudelange, Luxembourg) were reconstituted in 30% acetonitrile, dried in small aliquots by vacuum centrifugation and subsequently redissolved in BSA medium. Fifty microliter aliquots were then dispensed into quadruplicate wells of a white 96-well plate (OptiPlate, PerkinElmer). Cell suspensions were gently stirred and injected in 50 μl aliquots into each well using a Mithras LB 940 microplate reader (Berthold Technologies, Bad-Wildbad, Germany) and light emission (Ca^2+ response) recorded for 30 s. Cells were then lysed by injection of 0.3% Triton-X in BSA medium and light emission recorded for a further 10 s to measure total Ca^2+ response. BSA medium was used for blank measurements (6 replicate wells per plate) and mock transfection with empty vectors carried out for negative controls. Data was analyzed using MikroWin v5.18 (Mikrotek Laborsysteme GmbH) and SigmaPlot v.13 (Systat Software, Inc.). Receptor response was normalized against total Ca^2+ response.

[3] = system: semi-isolated heart; experiment: Cardioactivity on semi-isolated heart preparations; parameters: species or system Carcinus maenas; details: superfusion
Method: Cardioactivity of […], and ACP was performed on semi-isolated heart preparations of C. maenas. Crabs (ca. 65 mm carapace width) were ice-anesthetized and rapidly decerebrated before removing all limbs and the dorsal carapace to expose the heart and pericardial cavity. The heart was connected to a force transducer (MLT0210/A) via a micro fishing hook (size 28) and fine nylon (0.08 mm) monofilament. Connection to a PC with Chart 4.0 was via a Bridge Pod (ML301) and Powerlab 4/20 (AD Instruments Pty Ltd, Castle Hill, NSW, Australia). Transducer gain was set at maximum sensitivity (200 μV). Heart preparations were initially perfused with C. maenas physiological saline (Saver et al., [1999]) at room temperature (20°C). Once a stable heart output was achieved, hearts were firstly perfused with 1 ml saline, followed by increasing concentrations of peptides, applied in 1 ml. Crustacean cardioactive peptide (CCAP) (Bachem, Bubendorf, Switzerland), or proctolin (Sigma, Poole, UK) were positive controls (10^-11-10^-7 M). Test peptides ([…]) were perfused at 10^-8-10^-6 M for approximately 2 min at each concentration.

[4] = molecular target: T2, C. maenas CRZR (corazonin receptor) (Carcinus maenas, UniProt A0A2L0WQE5); experiment: Aequorin luminescence Ca2+ mobilization in CHO-K1-Aeq cells transiently expressing CRZR; assay type: cell-based; details: for pEC50: CHO-K1-Aeq cells (without Gα16) transiently expressing CRZR, luminescence response normalized to total Ca2+ response, dose response curves, means of n = 4; for bioluminescent response at CRZR compared with the homologous crab/insect ligand (Arg^7-CRZ): several independent experiments
T2 sequence (A0A2L0WQE5 1-617): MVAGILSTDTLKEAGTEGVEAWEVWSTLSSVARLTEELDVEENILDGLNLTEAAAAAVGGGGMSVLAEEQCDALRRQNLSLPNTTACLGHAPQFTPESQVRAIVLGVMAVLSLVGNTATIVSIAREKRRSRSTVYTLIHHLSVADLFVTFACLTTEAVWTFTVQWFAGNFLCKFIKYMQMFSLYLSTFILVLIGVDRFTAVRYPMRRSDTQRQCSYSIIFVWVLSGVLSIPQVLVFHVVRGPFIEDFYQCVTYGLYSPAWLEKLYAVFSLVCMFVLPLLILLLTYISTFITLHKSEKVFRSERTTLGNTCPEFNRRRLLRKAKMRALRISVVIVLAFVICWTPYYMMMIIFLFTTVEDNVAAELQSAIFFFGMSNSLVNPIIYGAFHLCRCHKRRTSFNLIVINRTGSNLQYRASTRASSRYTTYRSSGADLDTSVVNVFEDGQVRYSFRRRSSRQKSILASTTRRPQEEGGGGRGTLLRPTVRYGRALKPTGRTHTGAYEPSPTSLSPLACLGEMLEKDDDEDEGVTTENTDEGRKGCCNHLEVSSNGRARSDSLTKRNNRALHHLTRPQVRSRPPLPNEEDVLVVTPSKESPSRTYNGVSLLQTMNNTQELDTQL
Method: as §1, §2, §3

[5] = Hemolymph triglyceride levels after peptide injection; assay type: in vivo, Carcinus maenas; details: lipid mobilization bioassay
[6] = Hemolymph glucose levels after peptide injection; assay type: in vivo, Carcinus maenas; details: injection 100, 10 pmol per crab
Method: (§4) Adipokinetic and glucose mobilizing activity of […] and ACP were performed by measurement of triglycerides in hemolymph ([…] et al., [2014]) and glucose (Chung and Webster, [1996]). Hemolymph samples (ca. 100 μl) were taken from crabs injected with each peptide at 0 and 90 min, and subsequently assayed.

[7] = system: putative adipokinetic hormone/corazonin-related peptide receptor (ACPR); experiment: Receptor assay with putative ACPR; assay type: cell-based, Carcinus maenas
Method: as §1
Cells grown in a monolayer to approximately 60% confluency in T75 flasks were transfected with pcDNA3.1 constructs using FugeneHD (Promega) according to the manufacturer's recommendations. Briefly, transfection medium was prepared by combining 800 μl Opti-MEM® (Gibco) with 10 μg vector and 30 μl Fugene HD in a 2 ml polystyrene tube and incubated for 10 min at room temperature. […]
On the day of the assay, cells were detached from the culture flask by incubating for 12 min in 5 ml 0.2% EDTA in PBS. […] Cell suspensions were gently stirred and injected in 50 μl aliquots into each well using a Mithras LB 940 microplate reader (Berthold Technologies, Bad-Wildbad, Germany) and light emission (Ca^2+ response) recorded for 30 s. Cells were then lysed by injection of 0.3% Triton-X in BSA medium and light emission recorded for a further 10 s to measure total Ca^2+ response. […] Data was analyzed using MikroWin v5.18 (Mikrotek Laborsysteme GmbH) and SigmaPlot v.13 (Systat Software, Inc.). […]

[8] = Hemolymph triglyceride levels after peptide injection; assay type: in vivo, Carcinus maenas
Method: as §4

In the case of `CC(C)C[C@H](NC(=O)[C@@H]1CCC(=O)N1)C(=O)N[C@@H](CC(N)=O)C(=O)N[C@@H](Cc1ccccc1)C(=O)N[C@H](C(=O)N1CCC[C@H]1C(=O)N[C@@H](CC(N)=O)C(=O)N[C@@H](Cc1c[nH]c2ccccc12)C(=O)NCC(=O)N[C@H](C(N)=O)[C@@H](C)O)[C@@H](C)O` [Lom AKH-1, reference compound] (HELM PEPTIDE1{[Glp].L.N.F.T.P.N.W.G.T.[am]}$$$$V2.0), the “pigment migration (concentration) in red and black epidermal chromatophores” value [1] was “slightly less effective compared to RPCH” and the pEC50 [2] was 10.15.

For proctolin [reference compound], the “kind of response on semi-isolated hearts” value ([3]; positive control) was “very pronounced inotropic response” and the “threshold response on semi-isolated hearts” value ([3]; positive controls, CCAP: most sensitive preparations) was “about 10^−9 M”.

For `C[C@@H](O)[C@H](NC(=O)[C@H](Cc1c[nH]c2ccccc12)NC(=O)CNC(=O)[C@H](Cc1c[nH]cn1)NC(=O)[C@H](CO)NC(=O)[C@H](Cc1ccc(O)cc1)NC(=O)[C@@H](NC(=O)[C@H](Cc1ccccc1)NC(=O)[C@@H](NC(=O)[C@@H]1CCC(=O)N1)[C@@H](C)O)[C@@H](C)O)C(=O)N[C@@H](CC(N)=O)C(N)=O` [Thr^4, His^7-CRZ] (HELM PEPTIDE1{[Glp].T.F.T.Y.S.H.G.W.T.N.[am]}$$$$V2.0), the pEC50 [4] was 9.85 and the “bioluminescent response at CRZR compared with the homologous crab/insect ligand (Arg^7-CRZ)” value [4] was “somewhat higher bioluminescent response at lower doses”.

In the case of “NSELINSILGLPKVMNDA-NH2 [PDH, C. maenas pigment dispersing hormone, reference compound]”, the “pigment dispersion of chromatophores” value ([1]; injection of 5 pmol, over 40 min) was “expansion of both red and black chromatophores”.

With `C[C@@H](O)[C@H](NC(=O)[C@H](Cc1c[nH]c2ccccc12)NC(=O)CNC(=O)[C@H](Cc1c[nH]cn1)NC(=O)[C@H](CO)NC(=O)[C@H](Cc1ccc(O)cc1)NC(=O)[C@H](CCC(N)=O)NC(=O)[C@H](Cc1ccccc1)NC(=O)[C@@H](NC(=O)[C@@H]1CCC(=O)N1)[C@@H](C)O)C(=O)N[C@@H](CC(N)=O)C(N)=O` [His^7-CRZ] (HELM PEPTIDE1{[Glp].T.F.Q.Y.S.H.G.W.T.N.[am]}$$$$V2.0) the pEC50 [4] was 9.52 and the “bioluminescent response at CRZR compared with the homologous crab/insect ligand (Arg^7-CRZ)” value [4] was “somewhat higher bioluminescent response at lower doses”.

In the case of “GnRH: evolutionarily-related peptide (mammalian) GnRH, gonadotropin releasing hormone [reference compound]”, the “binding to / activation of RPCHR” value [2] was “Neither receptor was activated” and the “activation of CRZR” value ([4]; even at micromolar concentrations) was “Neither receptor was activated”.

In the case of `CC[C@H](C)[C@H](NC(=O)[C@@H]1CCC(=O)N1)C(=O)N[C@H](C(=O)N[C@@H](Cc1ccccc1)C(=O)N[C@@H](CO)C(=O)N[C@@H](CCCNC(=N)N)C(=O)N[C@@H](CO)C(=O)N[C@@H](Cc1c[nH]c2ccccc12)C(=O)N[C@H](C(=O)N1CCC[C@H]1C(=O)N[C@@H](CCC(N)=O)C(N)=O)C(C)C)[C@@H](C)O` [ACP] (HELM PEPTIDE1{[Glp].I.T.F.S.R.S.W.V.P.Q.[am]}$$$$V2.0), the “effect on hemolymph diacylglycerol levels” value [5] was “completely without effect”, the “activity on circulating glucose” value [6] was “neither CRZ nor ACP exhibited any biological activity” and the “pigment migration (concentration) in red and black epidermal chromatophores” value [1] was “completely ineffective”. For the same molecule, the “cardioacceleratory effect on semi-isolated hearts” value ([3]; concentrations up to 10^−6 M, 20°C) was “completely without cardioacceleratory effect”, the “binding to putative ACPR” value [7] was “did not bind” and the pEC50 [2] was less than 4.70. The “binding to / activation of RPCHR” value [2] was “vanishingly small dose-dependent binding”, the “hemolymph triglyceride levels, 0 min” value ([8]; injection 100 pmol per crab, 0 min, mean ± 1 SEM, n = 6, SEM) was 1.47 ± 0.44 µg/µL and the “hemolymph triglyceride levels, 90 min” value ([8]; injection 100 pmol per crab, 90 min, mean ± 1 SEM, n = 6, no significant change over 90 min, SEM) was 1.28 ± 0.34 µg/µL. The “activity on circulating triglycerides” value ([8]; injection 100, 10 pmol per crab) was “neither CRZ nor ACP exhibited any biological activity”.
